Columns and labels:
[1] = tested on: arteriovenous bypass thrombosis in rats; experiment: Arteriovenous bypass thrombosis in rats (Example 4); assay type: in vivo, rat; conditions: for Wet weight of thrombus / Dry weight of thrombus: in g (unit assumed)
Protocol: Grouping: Divided into 5 groups, with 10 animals in each group. The model control group was given with solvent, and the test drug compound (1) and the positive control were given intravenously once a day for consecutive 3 d. The modeling started 30 min after the last dose.
Model preparation: 50 SD male rats were anesthetized with sodium pentobarbital at a dose of 60 mg/kg via ip. The rat was fixed in the supine position, and the skin was incised at the midline of the neck; the fascia and muscle tissues were separated, the left common carotid artery and the right external jugular vein were dissociated, and the arterio-venous (A-V) bypass surgery was performed using the polyethylene tubing with a built-in thread. The arterial clip was used to clamp the proximal end of the carotid artery, and one end of the polyethylene tubing was inserted into the artery, and another end was inserted into the vein, thereby completing the bypass surgery. 30 minutes after the last dose, the arterial clip was opened, and blood flowed from the left common carotid artery to the right external jugular vein through the bypass tubing, and the blood flow formed a bypass circulation, and the thrombus was taken out 15 min later.
(§1) Detection index: the blood flow was open after 15 min, the thread was taken out, the residual liquid was sucked dry, the thread attached with thrombus was weighed and the wet weight of thrombus was calculated; the dry weight of thrombus was weighed and calculated after bake-drying in the oven at 50° C. Thrombosis inhibition rate was calculated. Tails were clipped at the end of the experiment to detect bleeding time.

[2] = tested on: Erastin-induced neuronal cells; experiment: Cell viability (CCK8) of Erastin-induced neuronal cells (Example 8); assay type: cell-based, rat; conditions: Erastin 50 μM
Protocol: Experimental method: Primary neuron cells were incubated in a medium containing Erastin (final concentration of 50 μM) for 24 hours, and then incubated in a medium containing different concentrations of the test drug and Erastin (final concentration of 50 μM) for another 24 hours. After incubation, Real time PCR was used to detect mRNA expression of GPX4 in each group of cells, CCK8 assay was used to detect cell viability in each group of cells, C11-BODIPY probe method was used to detect intracellular lipid ROS levels in each group of cells, and PGSK probe method was used to detect iron content in cells.
The experimental data were expressed in means±SD, and statistical differences between groups were determined using one-way ANOVA and Tukey's test, with p-values less than 0.05 considered significant.
After incubation, the CCK8 experiment was used to detect the cell viability of each group of cells. The results were presented as Mean±SD. Compared with control group, ***p<0.0001. Compared with model control group, ^#P<0.05, ^##P<0.01.

rats = experiment: Bleeding time in rats, tail clipping (Example 4); assay type: in vivo, rat
Protocol: as §1, with “Grouping: Divided into 5 groups, with 10 animals in each group. […] The modeling started 30 min after the last dose. Detection” for “Detection”

[3] = tested on: vascular endothelial injury induced thrombosis model in zebrafish; experiment: Preventative effect on vascular endothelial injury induced thrombosis, ponatinib zebrafish model (Example 1); assay type: in vivo; conditions: 4.00 ng/tail injected
Protocol: Experimental method: 420 tails of 5 dpf wild type AB strain zebrafish were randomly selected and placed in a six-well plate, with 30 fish per well (experimental group). The fish were injected with compound (1), compound (2), compound (3), compound (4), compound (5), compound (6), compound (7), compound (8), compound (9), compound (10), and compound (11) (structural formula shown in Table 1) at a dose of 4.00 ng/tail, with positive control drug acetylsalicylic acid being administered by dissolving it in water at a concentration of 30.0 µg/mL. Normal control group (i.e. zebrafish treated with standard diluted water) and model control group were set up, with a capacity of 3 mL per well (experimental group). Except for normal control group, the remaining experimental groups were all given Punatinib by dissolving it in water to induce vascular endothelial injury induced thrombosis model in zebrafish. The zebrafish were stained with o-dianisidine after co-treatment with ponatinib and samples for a period of time under incubation conditions at 28° C.
After staining, 10 zebrafish in each group were randomly selected and photographed under the microscope, and the intensity of cardiac erythrocyte staining in zebrafish was analyzed using NIS-Elements D 3.20 advanced image-processing software, and the samples were evaluated for the preventative effect on vascular endothelial injury induced thrombosis by the statistical results of cardiac erythrocyte staining intensity.
The preventative effect on thrombosis is calculated as follows: […]
Statistical analysis was performed using SPSS software, and p<0.05 indicates significant differences

[4] = tested on: rats with focal cerebral ischemia (MCAO)/reperfusion; experiment: Therapeutic administration, cerebral ischemia-reperfusion injury MCAO/R in rats (Example 7); assay type: in vivo, rat
Protocol: Experimental method: SD rats were randomly divided into 11 groups, including pseudosurgery group, a model control group, positive control drug edaravone via intravenous injection (6 mg/kg, i.v.) group, positive control drug butylphthalide injection via intravenous injection (5 mg/kg, i.v.) group, compound (1) high-dose (24 mg/kg, i.v.), medium-dose (12 mg/kg, i.v.), low-dose (6 mg/kg, i.v.) via intravenous injection group, positive drug butylphthalide soft capsule via intragastric administration (60 mg/kg, i.g.) group, and compound via intragastric administration at (1) high-dose (60 mg/kg, i.g.), medium-dose (30 mg/kg, i.g.), low-dose (15 mg/kg, i.g.) group. A middle cerebral artery occlusion (MCAO) model for cerebral ischemia-reperfusion of male rats was prepared using the internal carotid suture-occluded method with an ischemic time of 90 min followed by reperfusion. Injection and oral administration for once were performed 1 h after reperfusion, and neurobehavioral scoring was performed on rats after 24 h to determine neurological function in rats; the cerebral infarction rate and cerebral water content of rats were determined by 2,3,5-triphenyltetrazolium chloride (TTC) staining.

SMILES: CC(=O)N[C@H](CSCC1OC2OC3C(CSC[C@@H](NC(C)=O)C(=O)[O-])OC(OC4C(CSC[C@@H](NC(C)=O)C(=O)[O-])OC(OC5C(CSC[C@@H](NC(C)=O)C(=O)[O-])OC(OC6C(CSC[C@@H](NC(C)=O)C(=O)[O-])OC(OC7C(CSC[C@@H](NC(C)=O)C(=O)[O-])OC(OC8C(CSC[C@@H](NC(C)=O)C(=O)[O-])OC(OC9C(CSC[C@@H](NC(C)=O)C(=O)[O-])OC(OC1C(O)C2O)C(O)C9O)C(O)C8O)C(O)C7O)C(O)C6O)C(O)C5O)C(O)C4O)C(O)C3O)C(=O)[O-].[Na+].[Na+].[Na+].[Na+].[Na+].[Na+].[Na+].[Na+] (stereo partly shown) [Compound (1)]
- Dry weight inhibition rate (%) ([1]; 10 mg/kg i.v.): 15.9%
- Wet weight inhibition rate (%) ([1]; 10 mg/kg i.v.): 19.4%
- Wet weight of thrombus ([1]; 10 mg/kg i.v. once a day 3 d, x ± s, n = 10): 0.0254 ± 0.0042
- Dry weight of thrombus ([1]; 10 mg/kg i.v. once a day 3 d): 0.0069 ± 0.0014
- Dry weight inhibition rate (%) ([1]; 20 mg/kg i.v.): 26.8%
- Wet weight inhibition rate (%) ([1]; 20 mg/kg i.v.): 21.9%
- Dry weight of thrombus ([1]; 20 mg/kg i.v. once a day 3 d): 0.006 ± 0.0014
- Wet weight of thrombus ([1]; 20 mg/kg i.v. once a day 3 d): 0.0246 ± 0.0045
- Dry weight inhibition rate (%) ([1]; 40 mg/kg i.v.): 37.8%
- Wet weight inhibition rate (%) ([1]; 40 mg/kg i.v.): 34.3%
- Dry weight of thrombus ([1]; 40 mg/kg i.v. once a day 3 d): 0.0051 ± 0.0011
- Wet weight of thrombus ([1]; 40 mg/kg i.v. once a day 3 d): 0.0207 ± 0.0041
- Cell viability (%) ([2]; 1 μM, 24 h, control = 100, Mean±SD): 57.01 ± 2.82^ %
- Cell viability (%) ([2]; 2.5 μM): 61.77 ± 6.56^ %
- Cell viability (%) ([2]; 5 μM): 65.4 ± 5.81%
- Cell viability (%) ([2]; 10 μM): 76.62 ± 5.99^## %
- Cell viability (%) ([2]; 20 μM): 80.62 ± 5.39^## %
- Cell viability (%) ([2]; 40 μM): 83.43 ± 6.21^## %
- Bleeding time (rats; 10 mg/kg i.v., x ± s, n = 10): 403.4 ± 185.1 s
- Bleeding time (rats; 20 mg/kg i.v.): 422.6 ± 205.7 s
- Bleeding time (rats; 40 mg/kg i.v.): 428.4 ± 185.6 s
- Effect on the bleeding time in rats, in words (rats; intravenous, compared with model control group): no significant effect
- Preventative effect on thrombosis (%) [3]: 66%
- Cardiac erythrocyte staining intensity (pixels, mean ± SE) ([3]; n = 10): 4397 ± 454 pixels
- Cardiac erythrocyte staining intensity (pixels, mean ± SE) ([3]; n = 10, listed as compound (1)): 4397 pixels
- Behavioral score ([4]; 6 mg/kg i.v. low-dose): 2.13 ± 0.35
- Cerebral infarction rate (%) ([4]; 6 mg/kg i.v. low-dose): 30.03 ± 7.79%
- Cerebral water content (%) ([4]; 6 mg/kg i.v. low-dose): 82.30 ± 1.04 %
- Behavioral score ([4]; 12 mg/kg i.v. medium-dose): 1.88 ± 0.35
- Cerebral infarction rate (%) ([4]; 12 mg/kg i.v. medium-dose): 16.94 ± 9.52 %
- Cerebral water content (%) ([4]; 12 mg/kg i.v. medium-dose): 80.74 ± 0.89 %
- Behavioral score ([4]; 15 mg/kg i.g. low-dose): 2.25 ± 0.71
- Cerebral infarction rate (%) ([4]; 15 mg/kg i.g. low-dose): 29.49 ± 5.93%
- Cerebral water content (%) ([4]; 15 mg/kg i.g. low-dose): 82.24 ± 1.49%
- Behavioral score ([4]; 24 mg/kg i.v. high-dose): 1.62 ± 0.52
- Cerebral water content (%) ([4]; 24 mg/kg i.v. high-dose): 79.95 ± 1.16 %
- Cerebral infarction rate (%) ([4]; 24 mg/kg i.v. high-dose, 1 h after reperfusion): 11.64 ± 9.38 %
- Behavioral score ([4]; 30 mg/kg i.g. medium-dose): 2.00 ± 0.53
- Cerebral infarction rate (%) ([4]; 30 mg/kg i.g. medium-dose): 21.52 ± 11.04 %
- Cerebral water content (%) ([4]; 30 mg/kg i.g. medium-dose): 80.61 ± 1.21 %
- Behavioral score ([4]; 60 mg/kg i.g. high-dose): 1.62 ± 0.52
- Cerebral infarction rate (%) ([4]; 60 mg/kg i.g. high-dose): 13.61 ± 10.24 %
- Cerebral water content (%) ([4]; 60 mg/kg i.g. high-dose): 79.87 ± 1.71 %

From US20250064886A1, “CARDIOVASCULAR AND CEREBROVASCULAR DRUG AND USE THEREOF” (HANGZHOU ADAMERCK PHARMLABS INC., priority 2021, published 2025)
